In patent US4201774A, “Novel aminoglycoside derivatives” (Shionogi & Co., Ltd., priority 1977, dated 1980):
≈ marks a conversion by molar mass, not a printed value.

Columns and labels:
Proteus mirabilis TB-617 = test: MIC, Proteus mirabilis TB-617*; format: cell-based; settings: TB617; Proteus mirabilis TB-617, tobramycin resistant strain; read-out: minimum inhibitory concentration (MIC)
[1] = system: Pseudomonas aeruginosa TB-485; test: MIC, Pseudomonas aeruginosa TB-485*; format: cell-based; settings: TB485; Pseudomonas aeruginosa TB-485, tobramycin resistant strain; read-out: minimum inhibitory concentration (MIC)

Row | SMILES | MIC (Proteus mirabilis TB-617) | MIC [1]
1 | NC[C@H]1O[C@H](O[C@H]2[C@H](O)[C@@H](O[C@H]3O[C@H](CO)[C@@H](O)[C@H](N)[C@H]3O)[C@H](NCC3(O)CNC3)C[C@@H]2N)[C@H](N)C[C@@H]1O [Test compound (1), 1-N-[(3-hydroxyazetidin-3-yl)methyl]tobramycin] | 1.56 µg/mL (≈ 2.82 µM) | 6.25 µg/mL (≈ 11.3 µM)
2 | NC[C@H]1O[C@H](O[C@H]2[C@H](O)[C@@H](O[C@H]3O[C@H](CO)[C@@H](O)[C@H](N)[C@H]3O)[C@H](NCC3(O)CCNC3)C[C@@H]2N)[C@H](N)C[C@@H]1O (stereo partly shown) [Test compound (2), 1-N-[(3-hydroxypyrrolidin-3-yl)methyl]tobramycin] | 1.56 µg/mL (≈ 2.75 µM) | 3.13 µg/mL (≈ 5.52 µM)
3 | NC[C@H]1O[C@H](O[C@H]2[C@H](O)[C@@H](O[C@H]3O[C@H](CO)[C@@H](O)[C@H](N)[C@H]3O)[C@H](NCC3(O)CNC3)C[C@@H]2N)[C@H](O)[C@@H](O)[C@@H]1O [Test compound (3), 1-N-[(3-hydroxyazetidin-3-yl)methyl]kanamycin A] | 6.25 µg/mL (≈ 11 µM) | 6.25 µg/mL (≈ 11 µM)
4 | NC[C@H]1O[C@H](O[C@H]2[C@H](O)[C@@H](O[C@H]3O[C@H](CO)[C@@H](O)[C@H](N)[C@H]3O)[C@H](NCC3(O)CCNC3)C[C@@H]2N)[C@H](O)[C@@H](O)[C@@H]1O (stereo partly shown) [Test compound (4), 1-N-[(3-hydroxypyrrolidin-3-yl)methyl]kanamycin A] | 3.13 µg/mL (≈ 5.36 µM) | 6.25 µg/mL (≈ 10.7 µM)
5 | NC[C@H]1O[C@H](O[C@H]2[C@H](O)[C@@H](O[C@H]3O[C@H](CO)[C@@H](O)[C@H](N)[C@H]3O)[C@H](N)C[C@@H]2N)[C@H](N)C[C@@H]1O [Test compound (5), tobramycin, reference compound] | 6.25 µg/mL (≈ 13.4 µM) | 25 µg/mL (≈ 53.5 µM)
